According to US5852210A, “Cinnamic acid derivatives” (G. D. Searle & Co., priority 1997, dated 1998):
Structures can show the parent of a compound that is named as a salt.

How the values were obtained:
[1] = biological target: T1, Human vitronectin receptor (αv β3) (Homo sapiens, UniProt P05106+P06756); assay: Vitronectin adhesion assay (solid phase receptor assay, αvβ3); type: binding; details: inhibition of binding of biotinylated human vitronectin (1 nM) to purified receptor; Table I; read-out: AvB3 IC50
T1 construct: Human vitronectin receptor (αv β3) was purified from human placenta; from tissue; host or cells: human placenta
Procedure, shortened: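 Placental αvβ3 (100 ng/well) coated in TBS with 1 mM Ca, Mg, Mn, pH 7.4, then compound competed with 1 nM biotinylated vitronectin for 2 h at room temperature (top compound concentration 1.0×10^-4 M). Bound ligand detected with HRP anti-biotin/OPD at 450 nm; values normalized to maximum binding, four-parameter curve fit.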

[2] = biological target: T2, Human fibrinogen receptor (αIIb β3) (Homo sapiens, UniProt P05106+P08514); assay: Purified IIb/IIIa receptor assay (solid phase receptor assay); details: inhibition of binding of biotinylated human vitronectin (1 nM) to purified receptor; Table I
T2 construct: Human fibrinogen receptor (αIIb β3) was purified from outdated platelets; from tissue; host or cells: human outdated platelets
Procedure, shortened: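 Platelet-purified αIIbβ3 (100 ng/well) coated overnight at 4 °C, then competed 2 h at room temperature against 1 nM biotinylated human vitronectin in TBS with 1.0 mM Ca/Mg/Mn, pH 7.4, 1% BSA; top compound 1.0×10^-4 M. Bound ligand detected by HRP anti-biotin, A450, normalized to maximum binding, four-parameter fit.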

T2 sequence (P08514 32-887 limits assumed): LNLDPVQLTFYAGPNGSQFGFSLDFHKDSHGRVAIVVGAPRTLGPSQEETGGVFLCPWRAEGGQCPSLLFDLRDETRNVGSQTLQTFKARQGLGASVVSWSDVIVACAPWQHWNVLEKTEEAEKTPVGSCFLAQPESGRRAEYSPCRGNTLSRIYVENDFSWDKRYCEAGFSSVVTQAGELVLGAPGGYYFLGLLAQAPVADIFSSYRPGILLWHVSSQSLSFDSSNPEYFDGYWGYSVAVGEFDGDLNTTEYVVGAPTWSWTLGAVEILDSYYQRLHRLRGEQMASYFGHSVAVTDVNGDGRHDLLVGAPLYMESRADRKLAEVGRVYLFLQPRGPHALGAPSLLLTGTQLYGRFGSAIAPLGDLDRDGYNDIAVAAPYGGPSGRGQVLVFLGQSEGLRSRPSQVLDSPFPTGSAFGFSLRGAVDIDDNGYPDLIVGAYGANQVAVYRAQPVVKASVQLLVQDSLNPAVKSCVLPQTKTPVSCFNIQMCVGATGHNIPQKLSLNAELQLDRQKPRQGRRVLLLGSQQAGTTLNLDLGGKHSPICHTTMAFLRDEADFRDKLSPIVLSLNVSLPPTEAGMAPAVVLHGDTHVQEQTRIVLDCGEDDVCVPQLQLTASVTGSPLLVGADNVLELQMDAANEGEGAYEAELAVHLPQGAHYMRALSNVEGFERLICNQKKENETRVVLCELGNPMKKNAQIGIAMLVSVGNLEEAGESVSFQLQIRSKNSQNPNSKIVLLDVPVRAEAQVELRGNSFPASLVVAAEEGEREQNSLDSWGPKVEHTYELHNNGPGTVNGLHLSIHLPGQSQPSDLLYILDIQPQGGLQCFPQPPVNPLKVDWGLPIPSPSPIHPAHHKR
T2 sequence (P08514 891-1039 limits assumed): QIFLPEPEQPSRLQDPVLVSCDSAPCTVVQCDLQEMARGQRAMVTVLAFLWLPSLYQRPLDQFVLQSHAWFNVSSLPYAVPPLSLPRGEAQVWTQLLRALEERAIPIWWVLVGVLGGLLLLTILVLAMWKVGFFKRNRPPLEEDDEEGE
T2 sequence (P05106 27-788): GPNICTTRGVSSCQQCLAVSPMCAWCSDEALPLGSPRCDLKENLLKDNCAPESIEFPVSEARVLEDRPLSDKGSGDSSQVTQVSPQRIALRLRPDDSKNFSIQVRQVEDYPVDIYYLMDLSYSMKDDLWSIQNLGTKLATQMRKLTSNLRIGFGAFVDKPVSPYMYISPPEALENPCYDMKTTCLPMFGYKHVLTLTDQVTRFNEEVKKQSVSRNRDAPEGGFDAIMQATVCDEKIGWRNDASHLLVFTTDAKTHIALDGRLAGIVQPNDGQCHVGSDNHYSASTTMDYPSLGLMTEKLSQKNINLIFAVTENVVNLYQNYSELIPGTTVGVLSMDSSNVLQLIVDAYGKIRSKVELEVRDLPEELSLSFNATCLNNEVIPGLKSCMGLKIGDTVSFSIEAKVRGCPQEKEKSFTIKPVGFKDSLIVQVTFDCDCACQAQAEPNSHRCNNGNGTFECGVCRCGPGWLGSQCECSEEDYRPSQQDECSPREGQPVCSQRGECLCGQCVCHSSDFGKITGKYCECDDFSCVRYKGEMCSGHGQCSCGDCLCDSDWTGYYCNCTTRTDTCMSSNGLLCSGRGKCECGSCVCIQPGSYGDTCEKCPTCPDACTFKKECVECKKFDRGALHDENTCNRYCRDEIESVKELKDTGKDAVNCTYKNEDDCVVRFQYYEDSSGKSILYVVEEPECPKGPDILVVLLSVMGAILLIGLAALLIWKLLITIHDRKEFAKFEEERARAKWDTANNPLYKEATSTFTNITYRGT
T1 sequence (P06756 31-889 limits assumed): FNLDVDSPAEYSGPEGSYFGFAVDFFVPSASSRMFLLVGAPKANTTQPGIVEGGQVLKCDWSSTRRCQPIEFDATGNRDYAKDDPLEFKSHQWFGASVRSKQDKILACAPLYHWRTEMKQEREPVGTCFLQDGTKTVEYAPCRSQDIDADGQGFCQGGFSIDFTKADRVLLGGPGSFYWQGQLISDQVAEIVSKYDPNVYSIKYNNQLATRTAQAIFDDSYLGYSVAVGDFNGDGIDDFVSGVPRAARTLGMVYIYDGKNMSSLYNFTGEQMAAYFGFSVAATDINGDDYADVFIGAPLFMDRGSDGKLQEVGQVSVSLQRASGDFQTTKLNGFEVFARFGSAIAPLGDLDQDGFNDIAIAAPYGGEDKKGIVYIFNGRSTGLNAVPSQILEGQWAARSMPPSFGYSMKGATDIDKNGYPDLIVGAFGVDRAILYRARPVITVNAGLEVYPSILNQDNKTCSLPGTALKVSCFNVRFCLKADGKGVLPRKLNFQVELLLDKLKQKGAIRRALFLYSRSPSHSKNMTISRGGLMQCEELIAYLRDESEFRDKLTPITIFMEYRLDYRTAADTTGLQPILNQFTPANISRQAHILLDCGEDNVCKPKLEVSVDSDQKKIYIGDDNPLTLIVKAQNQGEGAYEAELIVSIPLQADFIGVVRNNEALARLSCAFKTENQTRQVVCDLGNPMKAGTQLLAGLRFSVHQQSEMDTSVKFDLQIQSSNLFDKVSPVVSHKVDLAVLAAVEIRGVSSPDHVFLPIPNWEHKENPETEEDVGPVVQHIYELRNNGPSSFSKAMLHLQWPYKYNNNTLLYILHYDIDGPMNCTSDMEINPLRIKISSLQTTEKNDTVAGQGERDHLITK
T1 sequence (P06756 891-1048 limits assumed): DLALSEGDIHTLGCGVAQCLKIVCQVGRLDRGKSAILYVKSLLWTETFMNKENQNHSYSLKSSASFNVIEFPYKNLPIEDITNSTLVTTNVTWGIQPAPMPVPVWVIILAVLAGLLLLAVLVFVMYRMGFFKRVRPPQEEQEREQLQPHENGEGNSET
T1 sequence (P05106 27-788): as the sequence (P05106 27-788) above

| SMILES | IC50 [1] | IC50 [2] |
| --- | --- | --- |
| O=C(O)/C=C/c1ccc(/C=C/c2cccc(NC3=NCCCS3)c2)cc1 [Example 100, 3-[4-[2-[3-[(5,6-dihydro-4H-thiazin-2-yl)amino]phenyl]ethenyl]phenyl]propenoic acid, trifluoroacetate salt] | 0.0306 µM | 0.664 µM |
| O=C(O)/C=C/c1ccc(OCc2cccc(NC3=NCCCN3)c2)cc1 [Example 101, 3-[4-[[3-[(1,4,5,6-tetrahydropyrimidin-2-yl)amino]phenyl]methoxy]phenyl]propenoic acid, trifluoroacetate salt] | 0.0426 µM | 0.118 µM |
| N=C(N)Nc1cccc(-c2nc(-c3cccc(/C=C/C(=O)O)c3)co2)c1 [Example 102, 3-[3-[2-[3-[(aminoiminomethyl)amino]phenyl]oxazol-4-yl]phenyl]propenoic acid, trifluoroacetate salt] | 1.94 µM | 4.48 µM |
| N=C(N)Nc1cccc(-c2coc(-c3ccc(C=CC(=O)O)cc3)n2)c1 [Example 103, 3-[4-[4-[3-[(aminoiminomethyl)amino]phenyl]oxazol-2-yl]phenyl]propenoic acid] | 32.1 µM | 0.0009 µM |
| N=C(N)Nc1cccc(-c2ncc(-c3ccc(/C=C/C(=O)O)cc3)[nH]2)c1 [Example 104, 3-[4-[2-[3-[(aminoiminomethyl)amino]phenyl]-1H-imidazol-5-yl]phenyl]propenoic acid, trifluoroacetate salt] | 17.3 µM | 0.0245 µM |
